Experimental data: ChEMBL document CHEMBL6087404, “Naphthoindole-2-carboxamides as a lipophilic chemotype of hetarene-anthraquinones potent against P-gp resistant tumor cells” (Eur J Med Chem, 2025)
Calls of active or inactive are those of the source. The rule behind the calls is not given here.

Tests used:
K562 [1] = assay: Effect on cell cycle distribution in human K562 cells assessed as cells with fragmented DNA at sub-G1 phase at 1 uM incubated for 24 hrs by PI staining based flow cytometry (reference value: 3 %); format: functional
[2] = Drug uptake in verapamil-treated human K562i/S9 cells at 2 uM incubated for 3 to 120 hrs by flow cytometry relative to wild-type culture; format: ADME, cell-based; details: k562i/s9, 2 µM, time 3-120 hrs
K562/4 [3] = assay: Induction of apoptosis in human K562/4 cells assessed as viable cells at 1 uM incubated for 24 hrs by Annexin V-FITC/PI staining based flow cytometry (reference value: 86 %); format: functional; details: read-out: Activity
[4] = target: T1, DNA topoisomerase 1 (Homo sapiens) (UniProt P11387); assay: Inhibition of Top1 (unknown origin)-mediated unwinding of supercoiled DNA at 5 uM incubated for 30 mins by electrophoretic analysis
T1 sequence (whole entry): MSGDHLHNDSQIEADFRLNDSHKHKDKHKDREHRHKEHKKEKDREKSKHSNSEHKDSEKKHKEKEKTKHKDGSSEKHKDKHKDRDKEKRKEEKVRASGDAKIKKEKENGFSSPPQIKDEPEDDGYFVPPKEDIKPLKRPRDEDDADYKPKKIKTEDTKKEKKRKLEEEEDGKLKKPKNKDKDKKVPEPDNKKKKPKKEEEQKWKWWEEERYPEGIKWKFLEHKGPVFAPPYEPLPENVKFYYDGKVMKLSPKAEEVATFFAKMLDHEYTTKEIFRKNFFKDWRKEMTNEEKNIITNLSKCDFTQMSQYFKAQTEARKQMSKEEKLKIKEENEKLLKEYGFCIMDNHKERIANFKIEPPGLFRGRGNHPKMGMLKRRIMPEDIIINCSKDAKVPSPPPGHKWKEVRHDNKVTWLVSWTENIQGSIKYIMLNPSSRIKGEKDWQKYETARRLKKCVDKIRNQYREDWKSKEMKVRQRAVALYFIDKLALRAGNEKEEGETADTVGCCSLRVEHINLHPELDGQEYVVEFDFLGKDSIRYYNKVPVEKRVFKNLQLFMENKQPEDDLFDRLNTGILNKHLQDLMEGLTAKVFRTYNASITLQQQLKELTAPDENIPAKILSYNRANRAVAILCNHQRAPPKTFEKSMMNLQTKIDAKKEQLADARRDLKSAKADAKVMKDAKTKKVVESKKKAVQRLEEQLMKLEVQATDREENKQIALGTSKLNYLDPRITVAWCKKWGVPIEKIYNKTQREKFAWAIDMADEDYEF

K562/4 [5] = assay: Induction of apoptosis in human K562/4 cells assessed as early apoptotic cells at 1 uM incubated for 48 hrs by Annexin V-FITC/PI staining based flow cytometry (reference value: 1 %); format: functional
[6] = Drug uptake in cytoplasmic membrane of human HCT-116 cells at 3 uM incubated for 1 hr by confocal microscopy; format: ADME, cell membranes, Cytoplasm membrane; details: hct-116, 1 h
K562/4 [7] = assay: Effect on cell cycle distribution in human K562/4 cells assessed as cells with fragmented DNA at sub-G1 phase at 1 uM incubated for 24 hrs by PI staining based flow cytometry (reference value: 4 %); format: functional
K562 [8] = assay: Effect on cell cycle distribution in human K562 cells assessed as cells with fragmented DNA at sub-G1 phase at 0.75 uM incubated for 72 hrs by PI staining based flow cytometry (reference value: 3 %); format: functional
K562 [9] = assay: Induction of apoptosis in human K562 cells assessed as viable cells at 1 uM incubated for 48 hrs by Annexin V-FITC/PI staining based flow cytometry (reference value: 85.9 %); format: functional; details: read-out: Activity
K562 [10] = assay: Induction of apoptosis in human K562 cells assessed as late apoptotic cells at 1 uM incubated for 48 hrs by Annexin V-FITC/PI staining based flow cytometry (reference value: 2.5 %); format: functional
K562 [11] = assay: Effect on cell cycle distribution in human K562 cells assessed as cells with fragmented DNA at sub-G1 phase at 0.75 uM incubated for 48 hrs by PI staining based flow cytometry (reference value: 3 %); format: functional
K562/4 [12] = assay: Induction of apoptosis in human K562/4 cells assessed as viable cells at 1 uM incubated for 48 hrs by Annexin V-FITC/PI staining based flow cytometry (reference value: 10.8 %); format: functional; details: read-out: Activity
K562/4 [13] = assay: Induction of apoptosis in human K562/4 cells assessed as early apoptotic cells at 1 uM incubated for 24 hrs by Annexin V-FITC/PI staining based flow cytometry (reference value: 1 %); format: functional
K562 [14] = assay: Effect on cell cycle distribution in human K562 cells assessed as cells with fragmented DNA at sub-G1 phase at 1 uM incubated for 48 hrs by PI staining based flow cytometry (reference value: 3 %); format: functional
DNA = assay: Binding affinity to pBR322 plasmid DNA (unknown origin) assessed as effect on electrophoretic mobility of DNA at 1 to 40 uM incubated for 30 mins; format: nucleic-acid assay; details: Escherichia coli, dose 1-40 µM
K562 [15] = assay: Effect on cell cycle distribution in human K562 cells assessed as cells with fragmented DNA at sub-G1 phase at 1 uM incubated for 72 hrs by PI staining based flow cytometry (reference value: 3 %); format: functional
[16] = Drug uptake in human HCT-116 cells at 3 uM incubated for 10 mins by confocal microscopy; format: ADME, cell-based; details: hct-116, 10 min
K562 [17] = assay: Effect on cell cycle distribution in human K562 cells assessed as cells with fragmented DNA at sub-G1 phase at 0.75 uM incubated for 24 hrs by PI staining based flow cytometry (reference value: 3 %); format: functional
K562 [18] = assay: Induction of apoptosis in human K562 cells assessed as necrotic cells at 1 uM incubated for 24 hrs by Annexin V-FITC/PI staining based flow cytometry (reference value: 10.8 %); format: functional
K562/4 [19] = assay: Effect on cell cycle distribution in human K562/4 cells assessed as cells with fragmented DNA at sub-G1 phase at 1 uM incubated for 48 hrs by PI staining based flow cytometry (reference value: 4 %); format: functional
[20] = Resistance index, ratio of IC50 for human K562/4 cells to IC50 for human K562 cells; format: functional
[21] = Drug uptake in human K562i/S9 cells assessed as fold increase at 2 uM incubated for 3 to 120 hrs by flow cytometry relative to LCTA-2640; format: ADME, cell-based; details: k562i/s9, 2 µM, time 3-120 hrs
[22] = Antiproliferative activity against hFB-hTERT6 cells incubated for 72 hrs by MTT assay; format: toxicity, cell-based; details: human
K562 [23] = assay: Induction of apoptosis in human K562 cells assessed as viable cells at 1 uM incubated for 24 hrs by Annexin V-FITC/PI staining based flow cytometry (reference value: 85.9 %); format: functional; details: read-out: Activity
[24] = Selectivity index, ratio of IC50 for human hFB-hTERT6 cells to IC50 for human K562 cells; format: toxicity; details: hFB-hTERT6 cells and K562 cells, read-out: Ratio IC50
K562/4 [25] = assay: Effect on cell cycle distribution in human K562/4 cells assessed as cells with fragmented DNA at sub-G1 phase at 0.75 uM incubated for 72 hrs by PI staining based flow cytometry (reference value: 4 %); format: functional
[26] = Drug uptake in mitochondria of human HCT-116 cells at 3 uM incubated for 1 hr by MitoTracker Red FM dye based confocal microscopy; format: ADME; details: hct-116, 1 h

CS(=O)(=O)O.N[C@H]1CCN(C(=O)c2cc3c(O)c4c(c(O)c3[nH]2)C(=O)c2ccccc2C4=O)C1
Activity (K562 [1]): 42%
Drug uptake [2]: 50%
viability at 1 µM (K562/4 [3]): 30.1%
inhibition [4]: Active
Activity (K562/4 [5]): 0.1%
Drug uptake [6]: Not_active
Activity (K562/4 [7]): 30%
Activity (K562 [8]): 30%
viability at 1 µM (K562 [9]): 11.9%
Activity (K562 [10]): 43.8%
Activity (K562 [11]): 26%
viability at 1 µM (K562/4 [12]): 79%
Activity (K562/4 [13]): 0.6%
Activity (K562 [14]): 84%
Activity (DNA): inactive
Activity (K562 [15]): 97%
Drug uptake [16]: Active
Activity (K562 [17]): 21%
Activity (K562 [18]): 46.2%
Activity (K562/4 [19]): 54%
Ratio IC50 [20]: 2.4
fold change (FC) [21]: <= 2
IC50 at 72 h [22]: 4.2 µM
viability at 1 µM (K562 [23]): 29%
selectivity ratio [24]: 8.4
Activity (K562/4 [25]): 5%
Drug uptake [26]: Active
